The results in this text go back to patent US6727265B2, “Phenoxyethyl-thiourea-pyridine compounds and their use for treatment of HIV-infections” (Parker Hughes Institute, priority 2000, dated 2004).

For orientation: IC50 means the concentration at which inhibition is half-maximal. As a reminder, the inhibition is the relative decrease from the control value, in per cent. A lower inhibition goes with a weak effect. What is called melting point is the temperature of the solid-liquid transition.

The target of data set [1] is purified recombinant HIV RT (Human immunodeficiency virus type 1 group M subtype B, UniProt P03366). As to the kind of experiment: biochemical.
The next data set has as its system HIV-1 strain HTLVIIIB
As to the kind of experiment: anti-HIV activity: inhibition of replication of HIV-1 strain HTLVIIIB in PBMC. It is filed as cell-based. The settings on record: for inhibition at 1 µM: at concentrations ≧1 μM; for IC50: read-out: IC50 [HTLVHIB].

A short description of the next data set: cytotoxicity (CC50). The settings on record: CC50 values. It is filed as cell-based.
[2] abbreviates: Human immunodeficiency virus 1, PBMC.
The mark [3] stands for this setting: Human immunodeficiency virus 1, peripheral blood mononuclear cells (PBMC) from healthy volunteer donors.

SMILES strings stand for the structures. Where two headings read alike, the source gives them in different places.

With `S=C(NCCOc1ccccc1)Nc1ccccn1` [II, N-[2-(Phenoxy)ethyl]-N′-[2-(pyridyl)]thiourea], the IC50 in data set [1] came out at 10100 nM; in the data set on HIV-1 strain HTLVIIIB (setting [3]), 5 nM. Also, in the data set on HIV-1 strain HTLVIIIB (setting [2]), 1 µM produced 100% inhibition. Moreover, the CC in the data set “cytotoxicity (CC50)” was determined as 55 µM.
Turning to `S=C(NCCOc1ccccc1)Nc1ccc(Cl)cn1` [III, N -[2-(Phenoxy)ethyl]-N′-[2-(5-chloropyridyl)]thiourea], the half-inhibitory concentration (IC50) in data set [1] was 1500 nM; in the data set with HIV-1 strain HTLVIIIB (setting [3]), 4 nM. In the data set on HIV-1 strain HTLVIIIB (setting [2]), at 1 µM the inhibition was 100%. Besides, in the data set “cytotoxicity (CC50)”, the CC is above 100 µM.
As for `S=C(NCCOc1ccccc1)Nc1ccc(Br)cn1` [IV, N-[2-(Phenoxy)ethyl]-N′-[2-(5-bromopyridyl)]thiourea], the melting point fell in the range of 162 to 163 °C. Moreover, in data set [1], the IC50 was 1500 nM. The compound also came in with an inhibition at 1 µM with HIV-1 strain HTLVIIIB (setting [2]) of 100%. Moreover, the half-inhibitory concentration (IC50) in the data set with HIV-1 strain HTLVIIIB (setting [3]) was 5 nM. The same compound registered a CC in the data set “cytotoxicity (CC50)” of 92 µM.
On to `S=C(NCCc1ccc(Cl)cc1)Nc1ccc(Br)cn1` [V, reference compound], for which the IC50 in data set [1] came out at 2500 nM.
For the compound `Oc1ccc(CCNC(=S)Nc2ccc(Br)cn2)cc1` [VII, reference compound], the IC50 in data set [1] came to 87700 nM; with HIV-1 strain HTLVIIIB (setting [2]), 3070 nM. The compound also came in with a CC in the data set “cytotoxicity (CC50)” above 100 µM.
